Results published in patent publication US6379670B1, “Methods for treatment of multiple sclerosis using peptide analogs of human myelin basic protein” (Neurocrine Biosciences, Inc., priority 1994, dated 2002).
“Also recorded” adds a separate entry of the source. Non-standard residues stand in square brackets, D forms with d. No end group written: not given here.

Key:
EAE in Lewis rats = test: Treatment of MBP(83-99)-induced EAE in Lewis rats with peptide analogs (subcutaneous); format: in vivo, Lewis rat
Experimental: In this system, experimental allergic encephalomyelitis (EAE) was induced in twelve female Lewis rats by injection of MBP(83-99) peptide in complete Freund's adjuvant (CFA) at the base of the tail. Nine days later, rats were divided into two groups of six animals and subcutaneously injected with 13.2 mg/kg of either peptide analog or a control peptide, sperm whale myoglobin (SWM) (110-121). Animals were monitored daily for disease symptoms and scored in a blinded fashion on a nonlinear ascending scale of 0-4 with increments denoting increasing paralysis. Each individual score was averaged with group cohorts to obtain the mean clinical score.

[1] = test system: peripheral blood T cells of MS patients; test: Frequency of antigen-reactive peripheral blood T cells after NBI-5788 treatment of MS patients (split-well); format: in vivo, human
Experimental: MS patients studied were those participating in phase I clinical trials using NBI-5788 administered subcutaneously (5, 10 or 20 mg) weekly for four weeks. Patients had MRI evaluations performed at baseline and at 6 and 12 weeks. All but 1 patient had secondary or primary progressive disease (SP or PP, respectively). For patients in group A, immunologic evaluations involving use of NBI-5788 as antigen could be performed only 9 months after completion of the treatment phase of the study. For patients in group B, immunologic evaluation was performed just prior to entry into the study (pre-treatment) and after 3 months following completion of the 1 month treatment phase. Two additional patients with SP MS, one with relapsing remitting (RR) MS and 3 normal controls were also studied.
Immune response to the peptide analog was assessed by measuring the frequency of proliferating peripheral blood T cells using a split-well microtiter method (i.e., number of positive wells {Δ cpm >1000, stimulation index>3} divided by the total number of wells assayed). Peripheral blood mononuclear cells (PBMC) were isolated from venous blood by Ficoll-Hypaque density gradient centrifugation, washed twice and resuspended in complete tissue culture medium (Iscove's modification of Dulbecco's medium containing 10% heat-inactivated, pooled, human A-B serum, 2 mM L-glutamine, 100 U/ml penicillin/streptomycin and 50 μg/ml gentamycin). PBMC from each patient were seeded at 10^5/well in 96 well, U-bottom microtiter plates containing 25 μg/ml whole MBP, 10 μg/ml NBI-5788 or medium alone in a volume of 200 μl. Three days later supernatants were collected and frozen at −80° C. and fresh medium containing IL-2 (10 U/ml) was added. IL-2-containg medium was refreshed on Day 7 and Day 11. On Day 14, the frequency of antigen response was determined by the “split well” technique. Briefly, cells from one primary well were split into replicate experimental wells in the presence of 10^5 freshly isolated autologous, irradiated peripheral blood mononuclear cells (APCs): one containing the original antigen (25 μg/ml) and one without antigen. Two days later supernatants were collected and the wells pulsed with 1 µCi/well [^3H]-thymidine ([…]) for the final 18 hours of culture. ^3H-Thymidine uptake was measured in a beta counter. […] The association between T cell frequency and NBI-5788 treatment was evaluated by χ^2 contingency analysis.

[2] = test system: NBI-5788- or MBP-reactive TCL from MS patients; test: Cytokine secretion (IFN-γ, IL-5) by TCL from MS patients, ELISA; format: in vivo, human
Experimental: To more fully characterize the nature of the immune response generated following APL administration, proliferating NBI-5788- or MBP-reactive TCL were established from untreated or NBI-5788-treated MS patients. […] Levels of Th2 cytokine IL-5 and Th1 cytokine IFN-γ were measured in culture supernatants collected 48 hours after stimulation with the selecting antigen, either NBI-5788 or whole MBP. Cytokines produced by T cell lines were assayed by ELISA. To measure cytokine levels, a sandwich ELISA method was used as follows: Nunc Maxisorp microtiter plates (Nalge Nunc, Denmark) were coated with capture mAb (Pharmingen, San Diego, Calif.) at 2 μg/ml for IL-4, IL-10, IL-13 and IFN-γ or at 1 μg/ml for IL-5. The capture mAb was diluted with 0.1 M NaHCO3 dispensed on the plate and incubated at 4° C. overnight. Plates were then blocked for at least 30 minutes at RT with 1% BSA (Sigma, St. Louis, Mo.) for IL-4, IL-5, IL-10 and IL-13 or 1% casein (Sigma) for IFN-γ. Standards were serially diluted (1000-1 pg/ml for IL-4 and 4000-5.5 pg/ml for IL-5, IL-10, IL-13 and IFN-γ) in blocking buffer and added to the plate. Samples were diluted at least 1:2 in blocking buffer and added to the plate. The plates were incubated at room temperature for one hour. The plates were washed and the biotinylated detection mAb (Pharmingen) was added to the plates at 1 μg/ml for IL-5 and IFN-γ or 2 μg/ml for IL-4, L-10, and IL-13. The plates were incubated for 1.5 hours at RT. After washing the plates streptavidin-peroxidase (Pierce, Rockford, Ill.) was added at 1 μg/ml for IL-5, IL-10, and IL-13 or 2 μg/ml for IL-4 and IFN-γ. The plates were incubated for 20-30 minutes. After washing thoroughly, TMB (Calbiochem, San Diego, Calif.) was added and the color was allowed to develop. The reaction was stopped by 0.2N H2SO4 and absorbance at 450 nm was determined. The association between cytokine phenotype and NBI-5788 treatment was evaluated by χ^2 contingency analysis. Mean cytokine secretion levels were compared using MannWhitney U test for non-parametric data. Probability values≦0.05 were considered significant.

In the case of “MBP(83-99) (83E>a, 84N>K, 89F>L, and 91K>A) ([dA]KPVVHLFANIVTPRTP) [NBI-5788]”, the “reduction of disease severity compared to the control group” value (EAE in Lewis rats; 13.2 mg/kg subcutaneously on day 9, FIG. 9) is reported as “about 50%”, the “effect on EAE disease severity versus control peptide” value (EAE in Lewis rats; 13.2 mg/kg subcutaneously on day 9, FIGS. 10 and 11) is reported as “significantly reduced the severity and duration of the disease” and the “mean frequency of NBI-5788-reactive T cells after treatment” value ([1]; 5, 10 or 20 mg, four times weekly, seven MS patients) is reported as 35.8±12.8%. For the same substance, the “mean frequency of MBP-reactive T cells after treatment” value ([1]; after treatment with NBI-5788 (n=7)) was 16.4±5.7%, the “change of frequency of MBP-reactive T cells following administration” value ([1]; human, in vivo) was “does not change markedly” and the “change of NBI-5788-reactive T cells in peripheral blood after subcutaneous administration versus untreated MS patients” value ([1]; human, in vivo, sc) was “significant (χ^2=82.7, p<0.001) increase; also recorded: strongly induced”. For the same substance, the “MBP-reactive TCL from APL-treated MS patients that secreted more IL-5 than IFN-γ” value ([2]; 13 of 23 TCL) was 56%, the “APL-reactive TCL from APL-treated MS patients that secreted more IL-5 than IFN-γ” value ([2]; 19 of 32 TCL) was 59% and the “change of mean IFN-γ secretion of MBP-reactive and APL-reactive T cell lines, APL-treated compared to non-treated MS patients” value ([2]; FIGS. 31A and 31B) was “significant (p<0.05) decrease”. The “cytokine phenotype of NBI-5788-reactive TCL from APL-treated versus untreated MS patients” value ([2]; secreting more IL-5 than IFN-γ) was “more Th2-like” and the “change of mean IL-5 secretion of TCL, APL-treated compared to non-treated MS patients” value ([2]; significant (p<0.05) for APL-reactive TCL, but not for MBP-reactive TCL) was “concomitant increase”.
